# Patent publication US20230192661A1, “1, 4, 5, 6-TETRAHYDROPYRIMIDINE-2-AMINE DERIVATIVE” (UBE Corporation, priority 2020, published 2023)
# How the values were obtained:
# [1] = system: Human hepatic stellate cells; experiment: Active human hepatic stellate cell dedifferentiation test (decrease in ACTA2 mRNA expression); type: cell-based; settings: 3 days differentiation then 2 days with compound, read-out: IC50 (rate of decrease in ACTA2 mRNA expression)
# Method: Human hepatic stellate cells (manufactured by ScienCell Research Laboratories, Inc., 5300) were suspended in DMEM containing 10% FBS and […] penicillin/streptomycin/amphotericin B to prepare a cell suspension of 0.5×10^5 cells/mL, which was regarded as cells at the start of differentiation. The cells at the start of differentiation were dispensed at 1 mL/well to a 12-well plate and cultured, for differentiation, for 3 days in a 5% CO2 incubator (37° C.).
# The culture solution in each well was removed, and DMEM containing 10% FBS and 1% penicillin/streptomycin/amphotericin B supplemented with a test compound dissolved in DMSO (final DMSO concentration: 0.1%) was added at 1 mL/well. The resultant was further cultured for 2 days in a 5% CO2 incubator (37° C.). In Test Example 4, the same reagents as in Test Example 1 were used unless otherwise specified.
# RNA in the cultured cells was extracted using NucleoSpin® RNA (manufactured by Takara Bio Inc., U0955C), and cDNA was further synthesized from the extracted RNA using Prime Script™ RT reagent Kit with gDNA Eraser (manufactured by Takara Bio Inc., RR047A). Real time PCR was performed using the synthesized cDNA, various primers and TB Green® Premix Ex Taq™ II (manufactured by Takara Bio Inc., RR820A) and using PCR Thermal Cycler Dice Real Time (manufactured by Takara Bio Inc., System Code TP910, Model Code TP900). The primers used were actin alpha 2, smooth muscle (ACTA2) primer (manufactured by Takara Bio Inc., HA136273) and glyceraldehyde-3-phosphate dehydrogenase (GAPDH) primer (manufactured by Takara Bio Inc., HA067812).
# The amplification curve of PCR was analyzed by the comparative Ct method. The expression level of ACTA2 mRNA was corrected with the expression level of GAPDH mRNA. An ACTA2 mRNA expression level when DMSO was added instead of the test compound was defined as 100%, and an ACTA2 mRNA expression level in the cells at the start of differentiation was defined as 0%. The rate of decrease in ACTA2 mRNA expression by the test compound was calculated according to the following expression.
# Rate of decrease in ACTA2 mRNA expression (%)=[1−{(ACTA2 mRNA expression level in the case of adding the test compound)−(ACTA2 mRNA expression level in the cells at the start of differentiation)}/{(ACTA2 mRNA expression level in the case of adding DMSO)−(ACTA2 mRNA expression level in the cells at the start of differentiation)}]×100
# An IC50 value was calculated from the rate of decrease in ACTA2 mRNA expression by the test compound. A: IC50<10 nM, B: 10 nM≤IC50<50 nM, C: 50 nM≤IC50<100 nM, or D: IC50≥100 nM.
# [2] = Transcellular transport test using Caco2 cell; type: in vitro ADME; settings: human, Caco-2; Caco2 monolayer, A-to-B, 10 μM compound, pH 7.4, 90 minutes
# Method: Caco2 cells (purchased from ATCC) were cultured in DMEM medium (Thermo Fisher Scientific, Inc., 11965) containing 10% FBS (Thermo Fisher Scientific, Inc., 10082) and 1% penicillin/streptomycin/amphotericin B (Thermo Fisher Scientific, Inc., 15240). A transcellular transport test was carried out in accordance with MultiScreen Caco2 Drug Transport Assembly in a 96-well system (Application Note AN1727EN, MultiScreen Caco-2 Assay System, Merck) by partially modifying it. The Caco2 cells were inoculated at a cell density of 4×10^4 cells/well onto a micropore polycarbonate insert of a 96-well plate (Merck, Millcell-96 culture insert plate 0.4 μm pore size, well membrane area=0.11 cm^2, PSHT004S5) and cultured for 20 to 22 days, and the resulting monolayer was used in the transcellular transport test. The medium of the inoculated cells was replaced with a fresh one every 3 to 4 days.
# Apical-to-basolateral (A-to-B) transport in the Caco2 cell monolayer membrane was performed by using HBSS (Thermo Fisher Scientific, Inc., 14025) medium (pH=7.4) containing 20 mM HEPES (Thermo Fisher Scientific, Inc., 15630), and adding HEPES-containing HBSS medium containing 10 μM compound (a 10 mM solution of the compound in DMSO was added at a 1000-fold dilution; final DMSO concentration: 0.1%) at 75 μL/well to the apical side and HEPES-containing HBSS medium supplemented with no compound at 250 μL/well to the basolateral side, followed by culture at 37° C. for 90 minutes. After culture, a 100 μL aliquot was collected from the basolateral side, and the concentration of a permeated compound was measured by LC-MS/MS under measurement conditions mentioned later. Papp (apparent permeability; cm/sec) was calculated from the determined concentration. Papp was determined according to the expression given below by calculating the slope (dA/dt; nmol/sec) of a straight line drawn between two points 0 minutes and zero amount of the compound in a graph plotted with an assay time (90 min) on the abscissa against the amount of the compound in the solution on the permeated side on the ordinate. As for an assay concentration, the concentration in the compound in the HEPES-containing HBSS medium containing the added compound was measured by UV-HPLC under measurement conditions mentioned later.
# Papp (cm/sec)=C0×S×(dA/dt)
# C0: assay concentration, S: plate membrane area=0.11 cm^2
structure (smiles),measurement,setting,value
"O=C(O)C[C@H](NC(=O)CNC(=O)c1cc(NC2=NCC(F)CN2)c2cn[nH]c2c1)c1cc(OC(F)F)cc(C(F)(F)F)c1 (stereo partly drawn) [Example 24-(b), (3S)-3-(3-(difluoromethoxy)-5-(trifluoromethyl)phenyl)-3-(2-(4-((5-fluoro-1,4,5,6-tetrahydropyrimidin-2-yl)amino)-1H-indazole-6-carboxamido)acetamido)propanoic acid]",IC50,[1],< 10 nM
same,"Papp A→B at 90 min, 10 μM",[2],0.5 to 1 ×10⁻⁶ cm/s
"O=C(O)C[C@H](NC(=O)CNC(=O)c1cc(NC2=NCC(F)CN2)c2cn[nH]c2c1)c1cc(Cl)cc(OC(F)F)c1 (stereo partly drawn) [Example 25-(b), (3S)-3-(3-chloro-5-(difluoromethoxy)phenyl)-3-(2-(4-((5-fluoro-1,4,5,6-tetrahydropyrimidin-2-yl)amino)-1H-indazole-6-carboxamido)acetamido)propanoic acid]",IC50,[1],< 10 nM
same,"Papp A→B at 90 min, 10 μM",[2],> 1 ×10⁻⁶ cm/s
"O=C(O)C[C@H](NC(=O)CNC(=O)c1cc(NC2=NCC(F)CN2)c2cn[nH]c2c1)c1cc(Br)cc(OC(F)F)c1 (stereo partly drawn) [Example 26-(b), (3S)-3-(3-bromo-5-(difluoromethoxy)phenyl)-3-(2-(4-((5-fluoro-1,4,5,6-tetrahydropyrimidin-2-yl)amino)-1H-indazole-6-carboxamido)acetamido)propanoic acid]",IC50,[1],< 10 nM
same,"Papp A→B at 90 min, 10 μM",[2],> 1 ×10⁻⁶ cm/s
"O=C(O)C[C@H](NC(=O)CNC(=O)c1cc(NC2=NCC(F)CN2)c2cn[nH]c2c1)c1cc(OC(F)F)ccc1F (stereo partly drawn) [Example 28-(b), (3S)-3-(5-(difluoromethoxy)-2-fluorophenyl)-3-(2-(4-((5-fluoro-1,4,5,6-tetrahydropyrimidin-2-yl)amino)-1H-indazole-6-carboxamido)acetamido)propanoic acid]",IC50,[1],10 to 50 nM
same,"Papp A→B at 90 min, 10 μM",[2],> 1 ×10⁻⁶ cm/s
"O=C(O)C[C@H](NC(=O)CNC(=O)c1cc(NC2=NCC(F)CN2)c2cn[nH]c2c1)c1cc(OC(F)F)cc(OC(F)F)c1 (stereo partly drawn) [Example 30-(b), (3S)-3-(3,5-bis(difluoromethoxy)phenyl)-3-(2-(4-((5-fluoro-1,4,5,6-tetrahydropyrimidin-2-yl)amino)-1H-indazole-6-carboxamido)acetamido)propanoic acid]",IC50,[1],< 10 nM
same,"Papp A→B at 90 min, 10 μM",[2],0.5 to 1 ×10⁻⁶ cm/s
"O=C(O)C[C@H](NC(=O)CNC(=O)c1cc(NC2=NCC(F)CN2)c2cn[nH]c2c1)c1cc(Cl)cc(OC(F)(F)F)c1 (stereo partly drawn) [Example 31-(b), (3S)-3-(3-chloro-5-(trifluoromethoxy)phenyl)-3-(2-(4-((5-fluoro-1,4,5,6-tetrahydropyrimidin-2-yl)amino)-1H-indazole-6-carboxamido)acetamido)propanoic acid]",IC50,[1],< 10 nM
same,"Papp A→B at 90 min, 10 μM",[2],> 1 ×10⁻⁶ cm/s
"O=C(O)C[C@H](NC(=O)CNC(=O)c1cc(NC2=NCC(F)CN2)c2cn[nH]c2c1)c1cc(Br)cc(OC(F)(F)F)c1 (stereo partly drawn) [Example 32-(b), (3S)-3-(3-bromo-5-(trifluoromethoxy)phenyl)-3-(2-(4-((5-fluoro-1,4,5,6-tetrahydropyrimidin-2-yl)amino)-1H-indazole-6-carboxamido)acetamido)propanoic acid]",IC50,[1],10 to 50 nM
same,"Papp A→B at 90 min, 10 μM",[2],> 1 ×10⁻⁶ cm/s
"O=C(O)C[C@H](NC(=O)CNC(=O)c1cc(NC2=NCC(F)CN2)c2cn[nH]c2c1)c1cc(OC(F)(F)F)ccc1F (stereo partly drawn) [Example 33-(b), (3S)-3-(2-(4-((5-fluoro-1,4,5,6-tetrahydropyrimidin-2-yl)amino)-1H-indazole-6-carboxamido)acetamido)-3-(2-fluoro-5-(trifluoromethoxy)phenyl)propanoic acid]",IC50,[1],10 to 50 nM
same,"Papp A→B at 90 min, 10 μM",[2],> 1 ×10⁻⁶ cm/s
"O=C(O)C[C@H](NC(=O)CNC(=O)c1cc(NC2=NCC(F)CN2)c2cn[nH]c2c1)c1ccc(F)c(OC(F)(F)F)c1 (stereo partly drawn) [Example 34-(b), (3S)-3-(2-(4-((5-fluoro-1,4,5,6-tetrahydropyrimidin-2-yl)amino)-1H-indazole-6-carboxamido)acetamido)-3-(4-fluoro-3-(trifluoromethoxy)phenyl)propanoic acid]",IC50,[1],10 to 50 nM
same,"Papp A→B at 90 min, 10 μM",[2],> 1 ×10⁻⁶ cm/s
"O=C(O)C[C@H](NC(=O)CNC(=O)c1cc(NC2=NCC(F)CN2)c2cn[nH]c2c1)c1cccc(C(F)(F)F)c1 (stereo partly drawn) [Example 35-(b), (3S)-3-(2-(4-((5-fluoro-1,4,5,6-tetrahydropyrimidin-2-yl)amino)-1H-indazole-6-carboxamido)acetamido)-3-(3-(trifluoromethyl)phenyl)propanoic acid]",IC50,[1],< 10 nM
same,"Papp A→B at 90 min, 10 μM",[2],> 1 ×10⁻⁶ cm/s
"O=C(O)C[C@H](NC(=O)CNC(=O)c1cc(NC2=NCC(F)CN2)c2cn[nH]c2c1)c1cccc(OC(F)(F)F)c1 (stereo partly drawn) [Example 36-(b), (3S)-3-(2-(4-((5-fluoro-1,4,5,6-tetrahydropyrimidin-2-yl)amino)-1H-indazole-6-carboxamido)acetamido)-3-(3-(trifluoromethoxy)phenyl)propanoic acid]",IC50,[1],10 to 50 nM
same,"Papp A→B at 90 min, 10 μM",[2],> 1 ×10⁻⁶ cm/s
"O=C(O)C[C@H](NC(=O)CNC(=O)c1cc(NC2=NCC(F)CN2)c2cn[nH]c2c1)c1cccc(OC(F)F)c1 (stereo partly drawn) [Example 37-(b), (3S)-3-(3-(difluoromethoxy)phenyl)-3-(2-(4-((5-fluoro-1,4,5,6-tetrahydropyrimidin-2-yl)amino)-1H-indazole-6-carboxamido)acetamido)propanoic acid]",IC50,[1],10 to 50 nM
same,"Papp A→B at 90 min, 10 μM",[2],> 1 ×10⁻⁶ cm/s
"O=C(O)C[C@H](NC(=O)CNC(=O)c1cc(NC2=NCC(F)CN2)c2cn[nH]c2c1)c1cccc(C(F)F)c1 (stereo partly drawn) [Example 38-(b), (3S)-3-(3-(difluoromethyl)phenyl)-3-(2-(4-((5-fluoro-1,4,5,6-tetrahydropyrimidin-2-yl)amino)-1H-indazole-6-carboxamido)acetamido)propanoic acid]",IC50,[1],< 10 nM
same,"Papp A→B at 90 min, 10 μM",[2],> 1 ×10⁻⁶ cm/s
"O=C(O)C[C@H](NC(=O)CNC(=O)c1cc(NC2=NCC(F)CN2)c2cn[nH]c2c1)c1cccc(C2CC2)c1 (stereo partly drawn) [Example 39-(b), (3S)-3-(3-cyclopropylphenyl)-3-(2-(4-((5-fluoro-1,4,5,6-tetrahydropyrimidin-2-yl)amino)-1H-indazole-6-carboxamido)acetamido)propanoic acid]",IC50,[1],< 10 nM
same,"Papp A→B at 90 min, 10 μM",[2],> 1 ×10⁻⁶ cm/s
"O=C(O)C[C@H](NC(=O)CNC(=O)c1cc(NC2=NCC(F)CN2)c2cn[nH]c2c1)c1cccc(OC2CC2)c1 (stereo partly drawn) [Example 40-(b), (3S)-3-(3-cyclopropoxyphenyl)-3-(2-(4-((5-fluoro-1,4,5,6-tetrahydropyrimidin-2-yl)amino)-1H-indazole-6-carboxamido)acetamido)propanoic acid]",IC50,[1],10 to 50 nM
same,"Papp A→B at 90 min, 10 μM",[2],> 1 ×10⁻⁶ cm/s
